According to patent EP1140026B1, “BIODEGRADBLE POLYMER ENCAPSULATED SEROTONIN RECEPTOR ANTAGONIST AND METHOD FOR PREPARING THE SAME” (AVENTIS PHARMACEUTICALS INC., priority 1998, dated 2000):

Tests used:
Male Wistar rats = experiment: Chronic Mild Stress Model of Depression (CMS), consumption of 1% sucrose solution; format: in vivo
From the text: CMS uses mild stressors, such as food and water deprivation, cage tilts, changes of cage mates, etc. Over a period of weeks of exposure to the mild stressors, the animals gradually reduce their consumption of a highly preferred sucrose solution which persists (in untreated animals) for several weeks following the cessation of stress. This decreased sensitivity to reward (the sucrose solution) reflects anhedonia, a symptom of a Major Depressive Episode (see for example, Behavioral Pharmacol. 5: Suppl.1, p. 86 (1994) where lithium, carbamazepine and ketoconazole were evaluated in CMS; Psychopharmacology 93:358-364 (1987) where a tricyclic antidepressant was evaluated in CMS; Behavioral Pharmacology: 5:344-350 (1994) where a catechol-O-methyl transferase inhibitor was evaluated in CMS).
Male Wistar rats were brought into the laboratory two months before the start of the experiment at which time they weighed approximately 300 grams. Except as described below, the animals were singly housed, with food and water freely available, and maintained on a 12 hour light/dark cycle (lights on at 8AM) at a temperature of about 22 °C.
The animals were first trained to consume a 1% sucrose solution; training consisted of eight 1 hour baseline tests in which sucrose was presented, in the home cage, following 14 hours food and water deprivation;- intake was measured by weighing pre-weighed bottles containing the sucrose solution at the end of the test. Subsequently, sucrose consumption was monitored, under similar conditions, at weekly intervals throughout the whole experiment.
On the basis of their sucrose intakes in the final baseline test, the animals were divided into two matched groups. One group of animals was subjected to a chronic mild stress procedure for a period of 9 consecutive weeks. Each week of stress regime consisted of: two periods of food or water deprivation (12 and 14 hour), two periods of 45 degree cage tilt (12 and 14 hour+), two periods of intermittent overnight illumination (lights on and off every 2 hours), two 14 hour periods of soiled cage (200 ml water in sawdust bedding), two 14 hour periods of paired housing, two 14 hour periods of low intensity stroboscopic illumination (150 flashes/min). Stressors were applied continuously throughout the day and night, and scheduled randomly. Control animals were housed in a separate room and had no contract with the stressed animals. They were deprived of food and water for the 14 hours preceding each sucrose test, but otherwise food and water were freely available in the home cage. On the basis of their sucrose intake scores following 3 weeks of stress, both stressed and control animals were each divided further into matched subgroups (n=8), and for subsequent five weeks they received daily administrations of vehicle (1ml/kg, intraperitoneally (ip)) imipramine (10mg/kg, ip) or MDL 100,907 (0.002, 0.02 and 0.2 mg/kg orally). All drug injections were in a volume of 1ml/kg body weight. Drugs were administered at 10AM and sucrose tests were carried out 24 hours following the last drug treatment. After five weeks, the treatments were terminated and after one week of withdrawal a final sucrose test was carried out. Stress was continued throughout the period of treatment and withdrawal.
Results were analyzed by multiple analysis of variance, followed by Fisher's LSD test for post hoc comparisons of means.

[1] = tested on: A10 vs. A9 neuronal activity; conditions: after chronic administration; cited from earlier work
platelets = conditions: aggregation as the result of minor alterations in the endothelial lining of the vasculature; cited from earlier work
myocardial tissue = conditions: cited from earlier work
[2] = tested on: amphetamine-stimulated locomotion; conditions: in vivo; cited from earlier work
[3] = tested on: MDMA-induced dopamine release in the striatum; conditions: in vivo; cited from earlier work
[4] = tested on: prepulse inhibition and latent inhibition; conditions: cited from earlier work

CN(C)CCCN1c2ccccc2CCc2ccccc21 [Imipramine, reference compound]
sucrose intake in control animals (Male Wistar rats; imipramine 10mg/kg ip daily, five weeks): no significant effect | sucrose intake in stressed animals (Male Wistar rats; imipramine 10mg/kg ip daily, five weeks, stressed animals): gradual increase of sucrose intake | sucrose intake after five weeks of treatment, stressed animals versus controls (Male Wistar rats; imipramine 10mg/kg ip daily, Week 5): no significant differences between drug-treated stressed animals and drug- and saline-treated controls | treatment time after which sucrose intake was significantly increased from Week 0 scores (Male Wistar rats; imipramine 10mg/kg ip daily, stressed animals): four | increase of sucrose intake one week after withdrawal from the drug (Male Wistar rats; imipramine 10mg/kg ip, stressed animals, one week after withdrawal): maintained at similar level

COc1cccc(C(O)C2CCN(CCc3ccc(F)cc3)CC2)c1OC (stereo not drawn) [MDL 100,907, (+)-α-(2,3-dimethoxyphenyl)-1-[2-(4-fluorophenyl)ethyl]-4-piperidinemethanol]
A10 vs. A9 neuronal activity [1]: selective effects | rate at which platelets aggregate (platelets): decreases the rate at which platelets aggregate | anti-arrhythmic activity, classification system of Vaughan Williams (myocardial tissue): Class III anti-arrhythmic activity | duration of the action potential of myocardial tissue (myocardial tissue): increases the duration of the action potential | sucrose intake throughout the whole treatment period (Male Wistar rats; 0.002mg/kg orally daily, stressed animals): no significant effect | sucrose consumption after five weeks of treatment (Male Wistar rats; 0.002mg/kg orally daily, stressed animals, Week 5): did not differ from the intakes of the vehicle-treated stressed animals | treatment time after which sucrose intakes were significantly increased from initial scores (Week 0) (Male Wistar rats; 0.02 mg/kg orally daily, stressed animals): two | amount of sucrose solution drunk at the end of treatment period (Week 5) (Male Wistar rats; 0.02 mg/kg orally daily, stressed animals, Week 5): comparable to that of vehicle-treated controls and significantly higher than that of vehicle-treated stressed animals | treatment time after which sucrose intakes were significantly increased from initial scores (Week 0) (Male Wistar rats; 0.2 mg/kg orally daily, stressed animals): three | amount of sucrose solution drunk at the end of treatment period (Week 5) (Male Wistar rats; 0.2 mg/kg orally daily, stressed animals, Week 5): comparable to that of vehicle-treated controls and significantly higher than that of vehicle-treated stressed animals | sucrose intakes one week after withdrawal from the treatment (Male Wistar rats; 0.002, 0.02 and 0.2 mg/kg, control and stressed animals, one week after withdrawal): not significantly changed | sucrose intake in control animals (Male Wistar rats; MDL 100,907 0.002, 0.02 and 0.2 mg/kg orally daily, five weeks): no significant effect | CMS-induced deficit in sucrose intake in stressed animals (Male Wistar rats; MDL 100,907 0.002, 0.02 and 0.2 mg/kg orally daily, five weeks, stressed animals): gradually reversed the CMS-induced deficit in sucrose intake | amphetamine-stimulated locomotion [2]: blockade | MDMA-induced dopamine release in the striatum [3]: reduction | disrupted PPI (prepulse inhibition) ([4]; disruption produced by 5HT agonists in Wistar rats): restore disrupted PPI | 5-HT2 agonist-induced deficits in prepulse inhibition and latent inhibition ([4]; rat, in vivo): reversal
